Target: GST-tagged recombinant human RIP2 (Homo sapiens (Human), UniProt O43353)
Experiment: RIP2 Kinase Assay (ADP-Glo)
Format: biochemical
Conditions: in vitro kinase activity, ATP 25 μM
Procedure: GST-tagged recombinant human RIP2 (25 ng) is incubated with 5 μL of compounds (0.5% DMSO), 5 μL of MBP (0.5 μg/μl) and 5 μL of ATP (25 μM) in buffer (40 mM Tris, 7.5; 20 mM MgCl2; 0.1 mg/ml BSA; 50 μM DTT). The assay was started by incubating the reaction mixture in a 96-well plate at 30° C. for 60 minutes. After the incubation, 25 μL ADP-Glo reagent was added, and the reaction was incubated at 30° C. for 40 minutes to stop the reaction and degrade residual ATP. The ADP product was then converted to ATP by adding 50 μL per well of detection reagent. Luminescence was detected after 30 minutes room temperature incubation with the Molecular device I3X plate reader. The IC50 values were calculated from a series of percent inhibition values determined at a range of inhibitor concentration using software routines as implemented in the GraphPad Prism 7 software and SigmaPlot 13.0.

Chain of GST-tagged recombinant human RIP2 (O43353 whole entry): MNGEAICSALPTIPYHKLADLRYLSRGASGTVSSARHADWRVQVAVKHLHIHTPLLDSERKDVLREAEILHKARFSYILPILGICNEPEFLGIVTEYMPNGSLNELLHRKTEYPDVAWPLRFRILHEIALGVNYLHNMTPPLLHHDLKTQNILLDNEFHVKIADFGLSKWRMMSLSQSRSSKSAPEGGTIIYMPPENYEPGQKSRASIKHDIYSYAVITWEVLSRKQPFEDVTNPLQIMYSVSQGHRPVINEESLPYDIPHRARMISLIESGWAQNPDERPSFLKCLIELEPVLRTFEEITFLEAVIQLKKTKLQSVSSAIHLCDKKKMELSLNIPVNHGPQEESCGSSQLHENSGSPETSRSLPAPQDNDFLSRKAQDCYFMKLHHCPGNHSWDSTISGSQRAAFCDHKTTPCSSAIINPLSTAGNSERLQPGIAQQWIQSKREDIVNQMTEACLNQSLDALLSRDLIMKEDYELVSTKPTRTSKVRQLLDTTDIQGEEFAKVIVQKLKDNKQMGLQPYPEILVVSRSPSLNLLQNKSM

Row | Structure (SMILES) | IC50
1 | Nc1nc2ccc(Br)cn2c1C(=O)C1CC1 [Example 1, (2-amino-6-bromoimidazo[1,2-a]pyridin-3-yl)(cyclopropyl)methanone] | > 1000 nM
2 | Cc1ccncc1-c1ccc2nc(N)c(C(=O)C3CC3)n2c1 [Example 2] | 101 to 500 nM
3 | Nc1nc2ccc(Br)cn2c1C(=O)[C@@H]1C[C@@H]1F [Example 4] | > 1000 nM
4 | CC(=O)c1c(N)nc2ccc(-c3cccc(F)c3C)cn12 [Example 6, 1-(2-amino-6-(3-fluoro-2-methylphenyl)imidazo[1,2-a]pyridin-3-yl)ethan-1-one] | 101 to 500 nM
5 | Cc1cc(F)ccc1-c1ccc2nc(N)c(C(=O)[C@@H]3C[C@@H]3F)n2c1 [Example 7] | 101 to 500 nM
6 | Nc1nc2ccc(-c3cccs3)cn2c1C(=O)[C@@H]1C[C@@H]1F [Example 8] | 101 to 500 nM
7 | Nc1nc2ccc(-c3cccc(F)c3C(F)(F)F)cn2c1C(=O)[C@@H]1C[C@@H]1F [Example 10] | > 1000 nM
8 | Cc1cccc(-c2ccc3nc(N)c(C(=O)[C@@H]4C[C@@H]4F)n3c2)c1C [Example 11] | 1 to 100 nM
9 | Cc1c(F)cccc1-c1ccc2nc(N)c(C(=O)c3ccccn3)n2c1 [Example 12] | 1 to 100 nM
10 | Cc1c(F)cccc1-c1ccc2nc(N)c(C(=O)c3ccccc3)n2c1 [Example 13] | 101 to 500 nM
11 | Cc1c(F)cccc1-c1ccc2nc(N)c(C(=O)C3CC3)n2c1 [Example 14] | 1 to 100 nM
12 | Cc1ccc(F)cc1-c1ccc2nc(N)c(C(=O)[C@@H]3C[C@@H]3F)n2c1 [Example 15] | 1 to 100 nM
13 | Cc1ccc(C)c(-c2ccc3nc(N)c(C(=O)[C@@H]4C[C@@H]4F)n3c2)c1 [Example 16] | 101 to 500 nM
14 | Cc1ccc(-c2ccc3nc(N)c(C(=O)[C@@H]4C[C@@H]4F)n3c2)c(C)c1 [Example 17] | 101 to 500 nM
15 | Cc1cccc(F)c1-c1ccc2nc(N)c(C(=O)[C@@H]3C[C@@H]3F)n2c1 [Example 18] | 101 to 500 nM
16 | Cc1c(-c2ccc3nc(N)c(C(=O)[C@@H]4C[C@@H]4F)n3c2)cccc1C(F)(F)F [Example 19] | 101 to 500 nM
17 | Cc1c(F)cccc1-c1ccc2nc(N)c(C(=O)C3CCC3)n2c1 [Example 20] | 101 to 500 nM
18 | Cc1c(F)cccc1-c1ccc2nc(N)c(C(=O)c3cnn(C)c3)n2c1 [Example 21] | 101 to 500 nM
19 | Cc1c(F)cccc1-c1ccc2nc(N)c(C(=O)C(C)(C)C)n2c1 [Example 22] | 101 to 500 nM
20 | CCCCC(=O)c1c(N)nc2ccc(-c3cccc(F)c3C)cn12 [Example 23] | 501 to 1000 nM
21 | Cc1c(F)cccc1-c1ccc2nc(NCCN(C)C)c(C(=O)[C@@H]3C[C@@H]3F)n2c1 [Example 24, (2-((2-(dimethylamino)ethyl)amino)-6-(3-fluoro-2-methylphenyl)imidazo[1,2-a]pyridin-3-yl)((1S,2S)-2-fluorocyclopropyl)methanone] | > 1000 nM
22 | Cc1cc(F)ccc1-c1ccc2nc(N)c(C(=O)[C@H]3C[C@@H]3F)n2c1 [Example 25] | 101 to 500 nM

Row | Structure (SMILES) | IC50
23 | Cc1cccc(F)c1-c1ccc2nc(N)c(C(=O)[C@H]3C[C@@H]3F)n2c1 [Example 26] | 101 to 500 nM
24 | Nc1nc2ccc(-c3ccco3)cn2c1C(=O)[C@@H]1C[C@@H]1F [Example 27] | > 1000 nM
25 | Cc1scnc1-c1ccc2nc(N)c(C(=O)[C@@H]3C[C@@H]3F)n2c1 [Example 28, (2-amino-6-(5-methylthiazol-4-yl)imidazo[1,2-a]pyridin-3-yl)((1S,2S)-2-fluorocyclopropyl)methanone] | 101 to 500 nM
26 | Cc1ccsc1-c1ccc2nc(N)c(C(=O)[C@@H]3C[C@@H]3F)n2c1 [Example 29] | 101 to 500 nM
27 | Nc1nc2ccc(-c3cncs3)cn2c1C(=O)[C@@H]1C[C@@H]1F [Example 30] | > 1000 nM
28 | Cc1c(-c2ccc3nc(N)c(C(=O)[C@@H]4C[C@@H]4F)n3c2)ccc(F)c1F [Example 31] | 101 to 500 nM
29 | CC(=O)Nc1nc2ccc(-c3cccc(F)c3C)cn2c1C(C)=O [Example 33, N-(3-acetyl-6-(3-fluoro-2-methylphenyl)imidazo[1,2-a]pyridin-2-yl)acetamide] | > 1000 nM
30 | Nc1nc2ccc(-c3ccccc3Cl)cn2c1C(=O)[C@@H]1C[C@@H]1F [Example 34] | 101 to 500 nM
31 | Cc1c(F)cccc1-c1ccc2nc(N)c(C(=O)[C@H]3C[C@H]3F)n2c1 [Example 35] | 101 to 500 nM
32 | Cc1c(F)cccc1-c1ccc2nc(N)c(C(=O)C3CCN3C(=O)OC(C)(C)C)n2c1 (stereo not shown) [Example 36] | > 1000 nM
33 | CC(=O)c1c(N(C(C)=O)C(C)=O)nc2ccc(-c3cccc(F)c3C)cn12 [Example 37, N-acetyl-N-(3-acetyl-6-(3-fluoro-2-methylphenyl)imidazo[1,2-a]pyridin-2-yl)acetamide] | > 1000 nM
34 | CC(=O)c1ccc(-c2ccc3nc(N)c(C(=O)[C@@H]4C[C@@H]4F)n3c2)c(C)c1 [Example 38] | > 1000 nM
35 | Nc1nc2ccc(-c3ccc(N4CCOCC4)cc3)cn2c1C(=O)[C@@H]1C[C@@H]1F [Example 39] | > 1000 nM
36 | Cc1c(F)cccc1-c1ccc2nc(N)c(C(=O)[C@@H]3C[C@H]3F)n2c1 [Example 42] | 101 to 500 nM
37 | Cc1c(F)cccc1-c1ccc2nc(N)c(C(=O)[C@H]3C[C@@H]3F)n2c1 [Example 43] | 101 to 500 nM
38 | Cc1ccc(C(F)(F)F)cc1-c1ccc2nc(N)c(C(=O)[C@@H]3C[C@@H]3F)n2c1 [Example 45] | 101 to 500 nM
39 | Cc1c(F)cccc1-c1ccc2nc(N)c(C(=O)C3CC(F)(F)C3)n2c1 [Example 46] | 501 to 1000 nM
40 | Cc1c(F)cccc1-c1ccc2nc(N)c(C(=O)[C@@H]3CC3(F)F)n2c1 [Example 47] | 101 to 500 nM
41 | Cc1c(F)cccc1-c1ccc2nc(N)c(C(=O)C3CCN3)n2c1 (stereo not shown) [Example 48] | 101 to 500 nM
42 | Cc1c(F)cccc1-c1ccc2nc(N)c(C(=O)C3CN(C(=O)OC(C)(C)C)C3)n2c1 [Example 49] | > 1000 nM
43 | Cc1c(F)cccc1-c1ccc2nc(N)c(C(=O)C3CNC3)n2c1 [Example 50] | 1 to 100 nM
44 | Nc1nc2ccc(-c3ccc(N4CCNCC4)cc3)cn2c1C(=O)[C@@H]1C[C@@H]1F [Example 52] | 501 to 1000 nM

Row | Structure (SMILES) | IC50
45 | CN1CCN(c2ccc(-c3ccc4nc(N)c(C(=O)[C@@H]5C[C@@H]5F)n4c3)cc2)CC1 [Example 53] | 101 to 500 nM
46 | CNc1nc2ccc(-c3cccc(F)c3C)cn2c1C(=O)[C@@H]1C[C@@H]1F [Example 54, (6-(3-fluoro-2-methylphenyl)-2-(methylamino)imidazo[1,2-a]pyridin-3-yl)((1S,2S)-2-fluorocyclopropyl)methanone] | > 1000 nM
47 | Cc1c(F)cccc1-c1ccc2nc(N(C)C)c(C(=O)[C@H]3C[C@@H]3F)n2c1 [Example 55, (2-(dimethylamino)-6-(3-fluoro-2-methylphenyl)imidazo[1,2-a]pyridin-3-yl)((1R,2S)-2-fluorocyclopropyl)methanone] | > 1000 nM
48 | CN1CCN(c2cccc(-c3ccc4nc(N)c(C(=O)[C@@H]5C[C@@H]5F)n4c3)c2)CC1 [Example 56] | 101 to 500 nM
49 | Nc1nc2ccc(-c3ccc4cc[nH]c4c3)cn2c1C(=O)[C@@H]1C[C@@H]1F [Example 58] | 1 to 100 nM
50 | Nc1nc2ccc(-c3cccc4cc[nH]c34)cn2c1C(=O)[C@@H]1C[C@@H]1F [Example 59] | 1 to 100 nM
51 | Cc1c(F)c(N(C)C)c2[nH]ncc2c1-c1ccc2nc(N)c(C(=O)[C@@H]3C[C@@H]3F)n2c1 [Example 61] | 101 to 500 nM
52 | CSc1c(F)c(C)c(-c2ccc3nc(N)c(C(=O)[C@@H]4C[C@@H]4F)n3c2)c2cn[nH]c12 [Example 62] | 101 to 500 nM
53 | Nc1nc2ccc(-c3ccc4occc4c3)cn2c1C(=O)[C@@H]1C[C@@H]1F [Example 63] | 1 to 100 nM
54 | CSc1c(F)c(Cl)c(-c2ccc3nc(N)c(C(=O)[C@@H]4C[C@@H]4F)n3c2)c2cn[nH]c12 [Example 66] | 101 to 500 nM
55 | Cc1c(F)cccc1-c1ccc2nc(NC(=O)OC(C)(C)C)c(C(=O)[C@@H]3C[C@@H]3F)n2c1 [Example 70, tert-butyl (6-(3-fluoro-2-methylphenyl)-3-((1S,2S)-2-fluorocyclopropane-1-carbonyl)imidazo[1,2-a]pyridin-2-yl)carbamate] | > 1000 nM
56 | Cc1c(F)cccc1-c1ccc2nc(N3CCCC3)c(C(=O)[C@@H]3C[C@@H]3F)n2c1 [Example 71, (6-(3-fluoro-2-methylphenyl)-2-(pyrrolidin-1-yl)imidazo[1,2-a]pyridin-3-yl)((1S,2S)-2-fluorocyclopropyl)methanone] | > 1000 nM
57 | Cc1cc(-c2ccc3nc(N)c(C(=O)[C@@H]4C[C@@H]4F)n3c2)sn1 [Example 72] | 101 to 500 nM
58 | Cc1c(F)cccc1-c1ccc2nc(N)c(C(=O)c3ncccn3)n2c1 [Example 76] | 1 to 100 nM
59 | Cc1c(F)cccc1-c1ccc2nc(N)c(C(=O)c3ccncn3)n2c1 [Example 77] | 101 to 500 nM
60 | Nc1nc2ccc(-c3cnc4[nH]ccc4c3)cn2c1C(=O)c1ccncn1 [Example 78] | 1 to 100 nM
61 | Nc1nc2ccc(-c3ccc4[nH]ncc4c3)cn2c1C(=O)[C@@H]1C[C@@H]1F [Example 80] | 1 to 100 nM
62 | Nc1nc2ccc(-c3ccc4[nH]ncc4c3Cl)cn2c1C(=O)[C@@H]1C[C@@H]1F [Example 81] | 1 to 100 nM
63 | CNCCNc1nc2ccc(-c3cccc(F)c3C)cn2c1C(=O)[C@@H]1C[C@@H]1F [Example 87, (6-(3-fluoro-2-methylphenyl)-2-((2-(methylamino)ethyl)amino)imidazo[1,2-a]pyridin-3-yl)((1S,2S)-2-fluorocyclopropyl)methanone] | > 1000 nM
64 | CC(=O)Nc1nc2ccc(-c3cccc(F)c3C)cn2c1C(=O)[C@@H]1C[C@@H]1F [Example 88, N-(6-(3-fluoro-2-methylphenyl)-3-((1S,2S)-2-fluorocyclopropane-1-carbonyl)imidazo[1,2-a]pyridin-2-yl)acetamide] | 101 to 500 nM

Reference: patent US11744824B2, “2-amino-3-carbonyl imidazopyridine and pyrazolopyridine compounds” (1ST Biotherapeutics, Inc., priority 2020, dated 2023)
